This data set can be described thus: Phase 1b study in previously untreated higher-risk MDS: dose administration, dose reductions and cycle delays in SE1 and SE2. Format: in vivo, human. As to conditions: for # of reductions in Venetoclax duration: reductions due to hematologic toxicity. As to the method:
Responses were evaluated using IWG 2006 criteria.
Subjects who initiate a cycle of treatment with neutropenia, absolute neutrophil count <1.5×10^9/L, or thrombocytopenia, platelets <75×10^9/L, may be especially sensitive to cytopenias due to abnormal hematopoiesis resulting from the underlying […]. […] However, subjects who initiate a cycle of treatment with absolute neutrophil count 1.5×10^9/L and platelets 75×10^9/L and have a previous response of complete remission, partial remission, or marrow complete remission may require dose reduction, if subsequent absolute neutrophil count nadir <0.500×10^9/L, or platelets nadir <50×10^9/L, if baseline was >100×10^9/L, or platelets <50% if baseline was ≤100×10^9/L.

Molecules are shown by their SMILES.

This note sets out measurements from patent US20220378811A1, “VENETOCLAX DOSING REGIMENS FOR USE IN TREATING MYELODYSPLASTIC SYNDROMES IN COMBINATION WITH AZACITIDINE” (ABBVIE INC., priority 2021, published 2022).

Take `CC1(C)CCC(CN2CCN(c3ccc(C(=O)NS(=O)(=O)c4ccc(NCC5CCOCC5)c([N+](=O)[O-])c4)c(Oc4cnc5[nH]ccc5c4)c3)CC2)=C(c2ccc(Cl)cc2)C1` [Venetoclax, 4-(4-{[2-(4-chlorophenyl)-4,4-dimethylcyclohex-1-en-1-yl]methyl}piperazin-1-yl)-N-({3nitro-4-[(tetrahydro-2H-pyran-4-ylmethyl)amino]phenyl}sulfonyl)-2-(1H-pyrrolo[2,3-b]pyridin5-yloxy)benzamide]: where the note is “SE1, n = 22”, the “Venetoclax dose delay by end of Cycle 2, Median # days” value is recorded as 7.5 days; the “Venetoclax dose delay by end of Cycle 3, Median # days” value is listed as 14 days; the “Venetoclax dose delay by end of Cycle 4, Median # days” value worked out at 17 days; the “Venetoclax dose delay by end of Cycle 5, Median # days” value worked out at 14 days. Also, under “SE1, n = 22”, the “Venetoclax dose delay by end of Cycle 6, Median # days” value was found to be 7 days and the “# of reductions in Venetoclax duration” value is listed as 3 (14). Also, for the setting “SE2, n = 21”, the “Venetoclax dose delay by end of Cycle 2, Median # days” value is given as 8 days; the “Venetoclax dose delay by end of Cycle 3, Median # days” value is reported as 8.5 days; the “Venetoclax dose delay by end of Cycle 4, Median # days” value was determined as 9 days; the “Venetoclax dose delay by end of Cycle 5, Median # days” value is given as 14 days. Also, for the setting “SE2, n = 21”, the “Venetoclax dose delay by end of Cycle 6, Median # days” value is recorded as 14 days and the “# of reductions in Venetoclax duration” value is on record as 0.
